According to patent US20200288710A1, “SUBSTITUTED SULPHONAMIDES FOR CONTROLLING ANIMAL PESTS” (BAYER CROPSCIENCE AKTIENGESELLSCHAFT, priority 2016, published 2020):

Legend:
[1] = tested on: Meloidogyne incognita; experiment: Meloidogyne incognita test; assay type: in vivo; details: 336 h, lettuce, after 14 days, read-out: nematicidal efficacy (formation of galls)
Experimental: Meloidogyne incognita Test Solvent: 125.0 parts by weight of acetone To produce a suitable active compound preparation, 1 part by weight of active compound is mixed with the stated amount of solvent and the concentrate is diluted with water to the desired concentration. Vessels are filled with sand, active compound solution, an egg/larvae suspension of the southern rootknot nematode (Meloidogyne incognita) and lettuce seeds. The lettuce seeds germinate and the plants develop. The galls develop on the roots. After 14 days, the nematicidal efficacy in % is determined by the formation of galls. 100% means that no galls were found; 0% means that the number of galls on the treated plants corresponds to the untreated control.

[2] = tested on: Myzus persicae; experiment: Myzus persicae oral test; assay type: in vivo; details: 120 h, 20 ppm, oral uptake, after 5 days, read-out: efficacy
Outline: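 Compound dissolved in acetone, diluted in water, then mixed 50:150 μl with IPL41 insect medium (33%+15% sugar). Mixed-population green peach aphids feed through a parafilm seal on the solution; mortality scored as % efficacy after 5 days (100% = all killed).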

SMILES | pest or weed control at 20 ppm [1] [%] | pest or weed control at 20 ppm [2] [%]
CCn1c(C(=O)NS(=O)(=O)c2ccccc2Cl)nc(-c2c(F)cccc2F)c1C [Example 414] | 100 | 100
COc1ccc(Cl)c(S(=O)(=O)NC(=O)c2nc(-c3ccccc3Cl)[nH]c2C)c1 [Example 239] | 90 | 100
Cn1cc(C(=O)NS(=O)(=O)Cc2cccc(Cl)c2)nc1-c1ccccc1Cl [Example 61] | 100 | 100
CCn1cc(C(=O)NS(=O)(=O)CC(F)(F)F)nc1-c1ccccc1Cl [Example 77] | 90 | 90
Cc1ccccc1-c1nc(C(=O)NS(=O)(=O)c2ccc(Cl)cc2)cn1C [Example 49] | 100 | 100
Cc1ccccc1S(=O)(=O)NC(=O)c1cn(C)c(-c2cccc(C(C)C)c2)n1 [Example 331] | 90 | 100
CCc1[nH]c(-c2c(F)cccc2F)nc1C(=O)NS(=O)(=O)c1cc(OC)ccc1Cl [Example 246] | 90 | 
COc1ccc(Cl)c(S(=O)(=O)NC(=O)c2nc(-c3c(F)cccc3Cl)[nH]c2C)c1 [Example 624] | 90 | 
Cn1cc(C(=O)NS(=O)(=O)c2ccccc2C(C)(C)C)nc1-c1c(F)cccc1F [Example 360] | 90 | 
COc1ccc(Cl)c(S(=O)(=O)NC(=O)c2nc(-c3ccc(Cl)cc3)[nH]c2C)c1 [Example 618] | 100 | 100
Cn1cc(C(=O)NS(=O)(=O)c2ccccc2Cl)nc1-c1cccs1 [Example 516] | 90 | 
CC(C)S(=O)(=O)NC(=O)c1cn(C)c(-c2c(F)cccc2F)n1 [Example 85] | 90 | 
CCc1ccccc1-c1nc(C(=O)NS(=O)(=O)c2ccccc2OC)cn1C [Example 498] | 90 | 100
CCn1c(C(=O)NS(=O)(=O)c2ccccc2OC)nc(-c2c(F)cccc2F)c1C [Example 416] | 90 | 90
Cn1cc(C(=O)NS(=O)(=O)c2ccccc2Cl)nc1-c1cc(Cl)ccc1Cl [Example 511] | 100 | 100
Cc1ccccc1S(=O)(=O)NC(=O)c1cn(C)c(-c2ccccc2Oc2ccccc2)n1 [Example 485] | 90 | 
Cc1[nH]c(-c2ccc(F)cc2F)nc1C(=O)NS(=O)(=O)C(C)C [Example 622] | 90 | 
COc1ccccc1S(=O)(=O)NC(=O)c1nc(-c2c(F)cccc2F)nn1C [Example 409] | 90 | 
Cn1cc(C(=O)NS(=O)(=O)N2CCOCC2)nc1-c1c(F)cccc1F [Example 505] | 90 | 
Cn1cc(C(=O)NS(=O)(=O)c2ccccc2Cl)nc1-c1cccc2c1OC(F)(F)O2 [Example 541] | 100 | 
COc1ccc(Cl)c(S(=O)(=O)NC(=O)c2c[nH]c(-c3c(F)cccc3F)n2)c1 [Example 411] | 90 | 100
Cc1[nH]c(-c2c(F)cccc2Cl)nc1C(=O)NS(=O)(=O)c1ccccc1Cl [Example 623] | 100 | 

SMILES | pest or weed control at 20 ppm [1] [%] | pest or weed control at 20 ppm [2] [%]
Cc1ccccc1S(=O)(=O)NC(=O)c1cn(C)c(-c2csc3ccccc23)n1 [Example 530] | 90 | 
COc1ccccc1S(=O)(=O)NC(=O)c1cn(C)c(-c2ccc(F)c(F)c2)n1 [Example 546] | 100 | 
Cc1cccc(C)c1S(=O)(=O)NC(=O)c1cc(-c2ncccc2Cl)n(-c2ccccc2Cl)n1 [Example 267] | 100 | 
CC(C)Cc1ccc(S(=O)(=O)NC(=O)c2cn(C)c(-c3ccccc3Cl)n2)cc1 [Example 288] | 90 | 
Cc1[nH]c(-c2ccc(Cl)cc2)nc1C(=O)NS(=O)(=O)c1ccccc1Cl [Example 232] | 90 | 
CCc1[nH]c(-c2ccc(F)cc2F)nc1C(=O)NS(=O)(=O)c1cc(OC)ccc1Cl [Example 244] | 90 | 
CCn1cc(C(=O)NS(=O)(=O)c2cccc(Cl)c2)nc1-c1ccccc1Cl [Example 40] | 100 | 100
CCc1[nH]c(-c2ccc(F)c(F)c2)nc1C(=O)NS(=O)(=O)c1ccccc1Cl [Example 471] | 90 | 
Cc1ccccc1-c1nc(C(=O)NS(=O)(=O)c2ccccc2)cn1C [Example 50] | 90 | 
Cc1[nH]c(-c2ccccc2F)nc1C(=O)NS(=O)(=O)c1ccccc1Cl [Example 626] | 90 | 
Cc1ccccc1S(=O)(=O)NC(=O)c1cc(-c2ncccc2Cl)n(-c2ccccc2Cl)n1 [Example 265] | 100 | 100
COc1cccc(C(C)C)c1S(=O)(=O)NC(=O)c1cn(C)c(-c2c(F)cccc2F)n1 [Example 377] | 90 | 
Cn1cc(C(=O)NS(=O)(=O)Cc2ccc(Cl)cc2)nc1-c1ccccc1Cl [Example 63] | 100 | 100
Cc1[nH]c(C(=O)NS(=O)(=O)C(C)C)nc1-c1ccccc1Cl [Example 202] | 90 | 100
CCc1[nH]c(-c2ccc(Cl)cc2)nc1C(=O)NS(=O)(=O)c1ccccc1C [Example 590] | 90 | 100
Cn1cc(C(=O)NS(=O)(=O)c2ccccc2Cl)nc1-c1ccc(Cl)c(Cl)c1 [Example 535] | 100 | 
O=C(NS(=O)(=O)c1ccccc1Cl)c1cc(-c2ccccc2Cl)n(-c2ncccc2Cl)n1 [Example 262] | 90 | 
COc1ccccc1S(=O)(=O)NC(=O)c1cn(C)c(-c2ccccc2Oc2ccccc2)n1 [Example 486] | 90 | 
O=C(NS(=O)(=O)c1c(Cl)cccc1Cl)c1cc(-c2ccccc2Cl)n(-c2ncccc2Cl)n1 [Example 263] | 100 | 
Cn1c(-c2ccccc2Cl)nc(C(=O)NS(=O)(=O)c2ccccc2Cl)c1Br [Example 580] | 100 | 
Cn1cc(C(=O)NS(=O)(=O)c2c(C(F)(F)F)cccc2[Si](C)(C)C)nc1-c1c(F)cccc1F [Example 375] | 90 | 
CC(C)Cc1ccc(S(=O)(=O)NC(=O)c2cn(C)c(-c3c(F)cccc3F)n2)cc1 [Example 287] | 90 | 

SMILES | pest or weed control at 20 ppm [1] [%] | pest or weed control at 20 ppm [2] [%]
COc1ccc(Cl)c(S(=O)(=O)NC(=O)c2nc(-c3cccc(C(C)C)c3)[nH]c2C)c1 [Example 621] | 90 | 
Cc1ccccc1S(=O)(=O)NC(=O)c1nc(-c2c(F)cccc2F)nn1C [Example 410] | 90 | 
CC(C)Nc1ccccc1S(=O)(=O)NC(=O)c1cn(C)c(-c2ccccc2Cl)n1 [Example 253] | 90 | 
Cn1cc(C(=O)NS(=O)(=O)c2cc(Cl)c(Cl)s2)nc1-c1c(F)cccc1F [Example 355] | 90 | 
COc1ccccc1S(=O)(=O)NC(=O)c1cn(C)c(-c2cc(Cl)ccc2Cl)n1 [Example 527] | 90 | 
Cn1cc(C(=O)NS(=O)(=O)c2ccccc2Cl)nc1-c1csc2ccccc12 [Example 522] | 90 | 
COc1ccccc1S(=O)(=O)NC(=O)c1cn(C)c(-c2ccncc2)n1 [Example 487] | 90 | 
Cc1[nH]c(-c2ccc(Cl)c(Cl)c2)nc1C(=O)NS(=O)(=O)c1ccccc1Cl [Example 614] | 100 | 
CC(C)c1ccccc1S(=O)(=O)NC(=O)c1cn(C)c(-c2c(F)cccc2F)n1 [Example 359] | 90 | 
COc1ccccc1S(=O)(=O)NC(=O)c1cn(C)c(-c2cccc3ccccc23)n1 [Example 480] | 90 | 
COc1ccccc1NS(=O)(=O)NC(=O)c1cn(C)c(-c2c(F)cccc2F)n1 [Example 508] | 90 | 
COc1ccc(C(C)(C)C)cc1S(=O)(=O)NC(=O)c1cn(C)c(-c2c(F)cccc2F)n1 [Example 392] | 90 | 
CC(C)N(C)S(=O)(=O)NC(=O)c1cn(C)c(-c2c(F)cccc2F)n1 [Example 551] | 90 | 
COc1cccc(S(C)(=O)=O)c1S(=O)(=O)NC(=O)c1cn(C)c(-c2c(F)cccc2F)n1 [Example 382] | 90 | 
Cn1cc(C(=O)NS(=O)(=O)c2ccccc2Cl)nc1-c1ccccc1C#N [Example 481] | 90 | 
CCc1[nH]c(-c2cc(Cl)cc(Cl)c2)nc1C(=O)NS(=O)(=O)c1ccccc1Cl [Example 254] | 90 | 
Cc1ccccc1S(=O)(=O)NC(=O)c1cn(C)c(-c2ccc(F)c(F)c2)n1 [Example 545] | 100 | 
Cn1nc(-c2c(F)cccc2F)nc1C(=O)NS(=O)(=O)c1ccccc1Br [Example 408] | 90 | 
CCc1[nH]c(-c2cccc(Cl)c2Cl)nc1C(=O)NS(=O)(=O)c1ccccc1C [Example 260] | 100 | 
COc1cccc(OC(C)C)c1S(=O)(=O)NC(=O)c1cn(C)c(-c2c(F)cccc2F)n1 [Example 380] | 100 | 
COc1ccc(Cl)c(S(=O)(=O)NC(=O)c2cc(-c3ncccc3Cl)n(-c3ccccc3Cl)n2)c1 [Example 457] | 100 | 
COc1ccccc1S(=O)(=O)NC(=O)c1cn(C)c(-c2cccc3c2OC(F)(F)O3)n1 [Example 543] | 90 | 
